In patent US20230285383A1, “TREATMENT OF SKIN DISEASES” (Ichilov Tech Ltd., priority 2020, published 2023):

Assays:
[1] = test system: human psoriatic skin; test: Chimeric mice carrying human psoriatic skin; format: in vivo, SCID mice; settings: i.p., 10 days; CPT 3 mg/kg five times a week; CPT-11 30 or 50 mg/kg three times a week
Text: (§1) Chimeric mice carrying human psoriatic skin were generated using SCID mice, 2-3 months of age. Animals were maintained in a pathogen-free animal facility. A psoriasis-like phenotype was induced in normal human skin grafted onto the mice by intradermal injection of natural killer/T cells derived from psoriatic patients as previously described [Gilhar A et al. J Invest Dermatol (2011) 131: 118-124].
(§2) Formaldehyde-fixed 5-μm paraffin-embedded sections from skin biopsies were deparaffinized and treated with 3% H2O2 in methanol for 15 minutes at room temperature, warmed in a microwave oven in citrate buffer in a pressure cooker for 25 minutes, and stained with a monoclonal anti-Ki67 antibody (Thermo Scientific) for 1 hour at room temperature. Following 3 washings (10 minutes each) with phosphate-buffered saline (PBS), the antibodies were imaged using the ABC technique (Zymed Laboratories, South San Francisco, Calif.) and the slides were counterstained with hematoxylin.
(§3) Epidermal thickness was defined as the distance between the granular layer and the basement membrane and was measured at 10 randomly selected locations for each biopsy using NIS-Elements BR 3.2 software (Nikon, NY USA). An image was taken and was manually measured in the software by selecting an upper and lower border, as defined above. The distance was measured in microns.
To assess the potential therapeutic role of the compounds of some embodiments of the invention, the two compounds were administered systemically (i.p) to chimeric mice carrying human psoriatic skin.
as §1, with “In short,” for “Chimeric mice carrying human psoriatic skin were generated using”, “age,” for “age. Animals”
Two weeks after natural killer/T-cell injection (6 weeks after human skin grafting), mice were injected i.p. five times a week. Five groups of mice were treated as follows: one group of mice was injected five times a week with the vehicle (10% DMSO in […] was used as a vehicle control); a second group of mice was injected five times a week CPT (3 mg/kg); a third group of mice was injected three times a week CPT-11 (50 mg/kg); a fourth group of mice was injected three times a week CPT-11 (30 mg/kg); and a fifth group of mice, was treated with dexamethasone (DEX) cream applied 5 times a week on the graft, as positive control (DEX was expected to attenuate inflammation in this model). Each group included six mice, and the treatment was performed for a total of 10 days. The grafts were harvested from the five groups of mice, paraffin-embedded, stained for hematoxylin and eosin (H&E), analyzed and scored for the average improvement of the clinical and histological psoriasiform phenotype.

[2] = test system: EGR1; test: EGR1 expression by qRT-PCR in Hela cells; format: cell-based, human
Procedure: (§4) HeLa cells were cultured in DMEM 4.5 g/l glucose medium containing 10% FCS, 1% L-glutamine and 1% penicillin and streptomycin (Biological Industries) and grown at 37° C. and 5% CO2.
(§5) Of note, when cells were incubated with CPT and CPT-11, they were grown in the appropriate medium with 0.1% FCS only.
(§6) RNA was extracted from cell cultures using an RNA extraction kit (Roche Diagnostics, Mahheim, Germany). cDNA was synthesized from 500 ng of total RNA using the Verso cDNA kit (Thermo Fisher Scientific, Waltham, Mass., USA) or qScript kit (Quanta Biosciences, Gaithersburg, Md., USA). cDNA PCR amplification was carried out using the Fast SYBR Green Master Mix in a StepOnePlus™ Real-Time PCR System (Applied Biosystems, Foster City, Calif., USA) with gene-specific intron-crossing oligonucleotide pairs listed in Table 1 (below). For quantification, standard curves were obtained using serially diluted cDNA amplified in the same qRT-PCR run. The melting temperature (Tm) of the amplified products was measured to confirm the specificity of the reaction conditions. […] Each sample was analyzed in triplicate. mRNA expression level for target gene was normalized to GAPDH. The results are based the amount of target, normalized to an endogenous reference (IACTB) and relative to a calibrator, as calculated by 2-ΔΔCT. […] The expression levels of target genes were expressed as mRNA relative units. […]

[3] = test system: SAMD9; test: SAMD9 expression by qRT-PCR in HeLa cells; format: cell-based, human
Procedure: as §4, §5, §6

[4] = test system: HeLa cells; test: RNA sequence analysis of HeLa cells treated with CPT; format: cell-based, human; settings: 10 μM, 48 hours
Procedure: FIG. 10A presents RNA-seq analysis of HeLa cells treated with CPT. HeLa cells were treated with 10 μM CPT or DMSO for 48 hours (three independent experiments). Total RNA was extracted and sent to RNA-seq. Volcano plot represents the number of genes that were differentially expressed. […] P-value for enrichment for genes belongs to a known psoriasis related pathogenic pathways (taken from IPA database) was calculated using hypergeometric distribution (using a background of 24190 genes).
HeLa cells were treated with 10 μM CPT or DMSO for 48 hours (three independent experiments). Total RNA was extracted and sent to RNA-sequencing.
The obtained data is presented in FIGS. 10A-B. FIG. 10A presents a volcano plot that show the number of statistically significant differential gene (DE) as response to CPT treatment. […] In addition, calculation of p-value for enrichment for genes belongs to a known psoriasis related pathogenic pathways (taken from IPA database) using hypergeometric distribution (using a background of 24190 genes). The table in FIG. 10B summarizes the number of genes in each group, the number of differentially expressed genes, the overlap, and the adjusted p-value (after correcting for multiple testing).

[5] = test system: imiquimod-induced psoriasiform dermatitis; test: Imiquimod-induced psoriasiform dermatitis in mice; format: in vivo, Balb/c mice; settings: 7.5 mg/Kg i.p., biopsies at day 6, vs vehicle
Procedure: Balb/c mice (Harlan Laboratories Ltd, Jerusalem, Israel), 9 weeks of age, were maintained in a pathogen-free animal facility. Animal care and research protocols had been approved by the institutional committee for animal use. Imiquimod 5% (Perrigo, Israel) was topically applied to the mice on their upper backs.
as §2
as §3, with “microns. […]” for “microns.”

[6] = test system: SAMD9; test: SAMD9 expression by qRT-PCR in TERC-transformed fibroblasts; format: cell-based, human; settings: 5 μM, 24 hours, relative to DMSO
Procedure: TERC-transformed fibroblasts were transformed with a pBABE-H2AGFP construct containing the human telomerase gene were cultured High Glucose DMEM, 10% FCS, L-glutamine and Pen-Strep (all cell culture regents from Biological Industries, Israel). Medium was changed every 2-3 days. Cells were used at passage 2-3.
as §5
as §6, with “GAPDH.” for “GAPDH. The results are based the amount of target, normalized to an endogenous reference (IACTB) and relative to a calibrator, as calculated by 2-ΔΔCT.”

[7] = test system: SAMD9; test: SAMD9 expression by qRT-PCR in primary fibroblasts; format: cell-based, human
Procedure: Primary fibroblasts were isolated from human adult skin and were grown in High Glucose DMEM, 10% Fetal Bovine Serum, L-glutamine and Pen-Strep. Medium was changed every 2-3 days. Cells were used at passage 2-3.
as §5
RNA was extracted from cell cultures using an RNA extraction kit (Roche Diagnostics, Mahheim, Germany). cDNA was synthesized from 500 ng of total RNA using the Verso cDNA kit (Thermo Fisher Scientific, Waltham, Mass., USA) or qScript kit (Quanta Biosciences, Gaithersburg, Md., USA). cDNA PCR amplification was carried out using the Fast SYBR Green Master Mix in a StepOnePlus™ Real-Time PCR System (Applied Biosystems, Foster City, Calif., USA) with gene-specific intron-crossing oligonucleotide pairs listed in Table 1 (below). For quantification, standard curves were obtained using serially diluted cDNA amplified in the same qRT-PCR run. The melting temperature (Tm) of the amplified products was measured to confirm the specificity of the reaction conditions. […] Each sample was analyzed in triplicate. mRNA expression level for target gene was normalized to GAPDH. The results are based the amount of target, normalized to an endogenous reference (IACTB) and relative to a calibrator, as calculated by 2-ΔΔCT. […]
SAMD9 expression was measured via qRT-PCR, in triplicates. […]

[8] = Hela cells, 1-10 μM for 48 hours, or 10 μM for 48 and 72 hours

SMILES	clinical and histological psoriasiform phenotype [1]	epidermal thickness [1]	inflammation index [1]	keratinocyte proliferation (Ki67) [1]	EGR1 expression [2, 8]	SAMD9 expression [3, 8]	expression of genes of psoriasis related pathways ([4]; enrichment by hypergeometric distribution)	number of genes downregulated ([4]; vs DMSO, FDR<0.01)	number of genes upregulated ([4]; vs DMSO, FDR<0.01)	EGR1 expression ([2]; 10 μM, 24, 48 and 72 hours, result sentence prints primary fibroblast cells, method Hela cells)	epidermal thickness [5]	index of proliferation (Ki67) [5]	SAMD9 expression ([3]; HeLa cells, 5 μM, 24 hours, relative to DMSO)	SAMD9 expression [6]	SAMD9 expression, dose dependence ([7]; 1 μM, 2 μM, 5 μM and 10 μM)	SAMD9 expression ([7]; 5 μM, 24 hours, relative to DMSO)
CCc1c2c(nc3ccc(OC(=O)N4CCC(N5CCCCC5)CC4)cc13)-c1cc3c(c(=O)n1C2)COC(=O)[C@]3(O)CC [CPT-11, Irinotecan]	significant clinical and histological attenuation of the psoriasiform phenotype	significant decrease	significant decrease	significant decrease	substantial down-regulation of EGR1	substantial induction of SAMD9 expression	–	–	–	–	–	–	–	–	–	–
CC[C@@]1(O)C(=O)OCc2c1cc1n(c2=O)Cc2cc3ccccc3nc2-1 [CPT, Camptothecin]	significant clinical and histological attenuation of the psoriasiform phenotype	significant decrease	significant decrease	significant decrease	–	–	significant turnover in expression of many genes belongs to psoriasis related pathways	1192	1664	significantly down-regulated EGR1 expression	decrease in epidermal thickness	decrease	significant induction of SAMD9 expression	significant induction of SAMD9 expression	up-regulate SAMD9 expression in a dose dependent manner	significant induction of SAMD9 expression
